SMILES strings stand for the structures. Where a SMILES comes first, the peptide text is derived from it. Bridges are numbered along the chain shown (N, C = ends). [ ]: non-standard residue; d: D form. The star is where a group is joined. Phe(4-COOH) = N[C@@H](Cc1ccc(C(=O)O)cc1)C(=O)O; Bip = N[C@@H](Cc1ccc(-c2ccccc2)cc1)C(=O)O; Phe(3-Me) = Cc1cccc(C[C@H](N)C(=O)O)c1; Cha = N[C@@H](CC1CCCCC1)C(=O)O; Carboxymethyl = O=C(O)C*; NMeA = CN[C@@H](C)C(=O)O; Orn = NCCC[C@H](N)C(=O)O; Aun = NCCCCCCCCCCC(=O)O; Dab = NCC[C@H](N)C(=O)O; Dap = NC[C@H](N)C(=O)O

This note sets out measurements from patent US20260070945A1, “MACROCYCLIC IMMUNOMODULATORS” (Bristol-Myers Squibb Company, priority 2022, published 2026).

T1 sequence (Q15116 25-288): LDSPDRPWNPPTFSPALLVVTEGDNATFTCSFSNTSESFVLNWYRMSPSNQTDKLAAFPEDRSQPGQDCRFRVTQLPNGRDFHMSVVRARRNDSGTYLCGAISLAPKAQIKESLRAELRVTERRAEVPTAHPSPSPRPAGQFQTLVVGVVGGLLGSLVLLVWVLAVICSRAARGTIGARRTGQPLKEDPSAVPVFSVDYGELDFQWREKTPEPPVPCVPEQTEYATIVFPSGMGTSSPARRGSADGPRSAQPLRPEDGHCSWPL

The assay concerns the target T1, PD-1/PD-L1 interaction (PE-labeled human PD-L1-Ig binding to Jurkat cell line over-expressing human PD-1) (Homo sapiens, UniProt Q15116).
T1 construct: expressed in transfected cells; host or cells: Jurkat
Kind of assay: Jurkat-PD-1 Cell Binding High-Content Screening Assay (CBA). The settings on record: Jurkat-hPD-1 cells, PE-labeled PD-L1-Ig 20 nM final; read-out: Jurkat HPD1 PDL1 IC50. How it is done: Example 2: Jurkat-PD-1 Cell Binding High-Content Screening Assay (CBA)
Phycoerythrin (PE) was covalently linked to the Ig epitope tag of human PD-L1-Ig and fluorescently-labeled PD-L1-Ig was used for binding studies with a Jurkat cell line over-expressing human PD-1 (Jurkat-PD-1). Briefly, 8×10^3 Jurkat-hPD-1 cells were seeded into 384 well plates in 20 μl of DMEM supplemented with 10% fetal calf serum. 100 nl of compound was added to cells followed by incubation at 37° C. for 2 hours. Then, 5 μl of PE-labeled PD-L1-Ig (20 nM final), diluted in DMEM supplemented with 10% fetal calf serum. After 1 hour incubation, cells were fixed with […] in dPBS containing 10 μg/ml Hoechst 33342 and then washed 3× in 100 μl dPBS. Data was collected and processed using a Cell Insight NXT High Content Imager and associated software.
Regarding `CC(C)C[C@@H]1NC(=O)[C@H](Cc2c[nH]c3ccccc23)NC(=O)[C@H](CC(=O)O)NC(=O)[C@H](Cc2ccc(C(=O)O)cc2)NC(=O)[C@H](Cc2ccc(OCC(=O)O)cc2)NC(=O)CSC[C@@H](C(=O)NCC(=O)N[C@@H](CCCCN)C(=O)NCC(=O)NCCCCCCCCCCC(=O)O)NC(=O)[C@H](CO)NC(=O)[C@H](C(C)C)NC(=O)[C@H](CC2CCCCC2)NC(=O)[C@H](CCN)NC(=O)[C@@H](CC(C)C)NC(=O)[C@H](C)N(C)C(=O)[C@H](C(C)C)NC(=O)[C@H](Cc2ccc(-c3ccccc3)cc2)NC1=O` [Example 1031] ({CH2CO}-Y(Carboxymethyl)[Phe(4-COOH)]DWL[Bip]V[NMeA][dL][Dab][Cha]VSCGKG[Aun]-OH; thioether N-14), the 50% inhibitory concentration (IC50) was determined as 10.7 nM.
The same measure for `CC(C)C[C@@H]1NC(=O)[C@H](Cc2c[nH]c3ccccc23)NC(=O)[C@H](CC(=O)O)NC(=O)[C@H](Cc2ccc(C(=O)O)cc2)NC(=O)[C@H](Cc2ccc(OCC(=O)O)cc2)NC(=O)CSC[C@@H](C(=O)NCC(=O)N[C@@H](CCC(=O)O)C(=O)NCC(=O)NCCCCCCCCCCC(=O)O)NC(=O)[C@H](CO)NC(=O)[C@H](C(C)C)NC(=O)[C@H](CC2CCCCC2)NC(=O)[C@H](CCN)NC(=O)[C@@H](CC(C)C)NC(=O)[C@H](C)N(C)C(=O)[C@H](C(C)C)NC(=O)[C@H](Cc2ccc(-c3ccccc3)cc2)NC1=O` [Example 1032] ({CH2CO}-Y(Carboxymethyl)[Phe(4-COOH)]DWL[Bip]V[NMeA][dL][Dab][Cha]VSCGEG[Aun]-OH; thioether N-14): 15.9 nM; for `CC(C)C[C@@H]1NC(=O)[C@H](Cc2c[nH]c3ccccc23)NC(=O)[C@H](CC(=O)O)NC(=O)[C@H](Cc2ccc(C(=O)O)cc2)NC(=O)[C@H](Cc2ccc(OCC(=O)O)cc2)NC(=O)CSC[C@@H](C(=O)NCC(=O)N[C@@H](CC(=O)O)C(=O)NCC(=O)NCCCCCCCCCCC(=O)O)NC(=O)[C@H](CO)NC(=O)[C@H](C(C)C)NC(=O)[C@H](CC2CCCCC2)NC(=O)[C@H](CCN)NC(=O)[C@@H](CC(C)C)NC(=O)[C@H](C)N(C)C(=O)[C@H](C(C)C)NC(=O)[C@H](Cc2ccc(-c3ccccc3)cc2)NC1=O` [Example 1033] ({CH2CO}-Y(Carboxymethyl)[Phe(4-COOH)]DWL[Bip]V[NMeA][dL][Dab][Cha]VSCGDG[Aun]-OH; thioether N-14): 20.5 nM.
The same measure for `CC(C)C[C@@H]1NC(=O)[C@H](Cc2c[nH]c3ccccc23)NC(=O)[C@H](CC(=O)O)NC(=O)[C@H](Cc2ccc(C(=O)O)cc2)NC(=O)[C@H](Cc2ccc(OCC(=O)O)cc2)NC(=O)CSC[C@@H](C(=O)N[C@@H](CCC(=O)O)C(=O)NCC(=O)NCCCCCCCCCCC(=O)O)NC(=O)[C@H](CO)NC(=O)[C@H](C(C)C)NC(=O)[C@H](CC2CCCCC2)NC(=O)[C@H](CCN)NC(=O)[C@@H](CC(C)C)NC(=O)[C@H](C)N(C)C(=O)[C@H](C(C)C)NC(=O)[C@H](Cc2ccc(-c3ccccc3)cc2)NC1=O` [Example 1035] ({CH2CO}-Y(Carboxymethyl)[Phe(4-COOH)]DWL[Bip]V[NMeA][dL][Dab][Cha]VSCEG[Aun]-OH; thioether N-14): 19.4 nM; for `CC(C)C[C@@H]1NC(=O)[C@H](Cc2c[nH]c3ccccc23)NC(=O)[C@H](CC(=O)O)NC(=O)[C@H](Cc2ccc(C(=O)O)cc2)NC(=O)[C@H](Cc2ccc(OCC(=O)O)cc2)NC(=O)CSC[C@@H](C(=O)NCC(=O)N[C@@H](CN)C(=O)NCCCCCCCCCCC(=O)O)NC(=O)[C@H](CO)NC(=O)[C@H](C(C)C)NC(=O)[C@H](CC2CCCCC2)NC(=O)[C@H](CCN)NC(=O)[C@@H](CC(C)C)NC(=O)[C@H](C)N(C)C(=O)[C@H](C(C)C)NC(=O)[C@H](Cc2ccc(-c3ccccc3)cc2)NC1=O` [Example 1036] ({CH2CO}-Y(Carboxymethyl)[Phe(4-COOH)]DWL[Bip]V[NMeA][dL][Dab][Cha]VSCG[Dap][Aun]-OH; thioether N-14): 11.5 nM; for `CC(C)C[C@@H]1NC(=O)[C@H](Cc2c[nH]c3ccccc23)NC(=O)[C@H](CC(=O)O)NC(=O)[C@H](Cc2ccc(C(=O)O)cc2)NC(=O)[C@H](Cc2ccc(OCC(=O)O)cc2)NC(=O)CSC[C@@H](C(=O)NCC(=O)N[C@@H](CCN)C(=O)NCCCCCCCCCCC(=O)O)NC(=O)[C@H](CO)NC(=O)[C@H](C(C)C)NC(=O)[C@H](CC2CCCCC2)NC(=O)[C@H](CCN)NC(=O)[C@H](CC(C)C)NC(=O)[C@H](C)N(C)C(=O)[C@H](C(C)C)NC(=O)[C@H](Cc2ccc(-c3ccccc3)cc2)NC1=O` [Example 1037] ({CH2CO}-Y(Carboxymethyl)[Phe(4-COOH)]DWL[Bip]V[NMeA]L[Dab][Cha]VSCG[Dab][Aun]-OH; thioether N-14): 13.6 nM.
In the case of `CC(C)C[C@@H]1NC(=O)[C@H](Cc2c[nH]c3ccccc23)NC(=O)[C@H](CC(=O)O)NC(=O)[C@H](Cc2ccc(C(=O)O)cc2)NC(=O)[C@H](Cc2ccc(OCC(=O)O)cc2)NC(=O)CSC[C@@H](C(=O)NCC(=O)N[C@@H](CCCN)C(=O)NCCCCCCCCCCC(=O)O)NC(=O)[C@H](CO)NC(=O)[C@H](C(C)C)NC(=O)[C@H](CC2CCCCC2)NC(=O)[C@H](CCN)NC(=O)[C@H](CC(C)C)NC(=O)[C@H](C)N(C)C(=O)[C@H](C(C)C)NC(=O)[C@H](Cc2ccc(-c3ccccc3)cc2)NC1=O` [Example 1038] ({CH2CO}-Y(Carboxymethyl)[Phe(4-COOH)]DWL[Bip]V[NMeA]L[Dab][Cha]VSCG[Orn][Aun]-OH; thioether N-14), the IC50 came out at 13.2 nM.
In the case of `CC(C)C[C@@H]1NC(=O)[C@H](Cc2c[nH]c3ccccc23)NC(=O)[C@H](CC(=O)O)NC(=O)[C@H](Cc2ccc(C(=O)O)cc2)NC(=O)[C@H](Cc2ccc(OCC(=O)O)cc2)NC(=O)CSC[C@@H](C(=O)NCC(=O)N[C@@H](CCCCN)C(=O)NCCCCCCCCCCC(=O)O)NC(=O)[C@H](CO)NC(=O)[C@H](C(C)C)NC(=O)[C@H](CC2CCCCC2)NC(=O)[C@H](CCN)NC(=O)[C@@H](CC(C)C)NC(=O)[C@H](C)N(C)C(=O)[C@H](C(C)C)NC(=O)[C@H](Cc2ccc(-c3ccccc3)cc2)NC1=O` [Example 1039] ({CH2CO}-Y(Carboxymethyl)[Phe(4-COOH)]DWL[Bip]V[NMeA][dL][Dab][Cha]VSCGK[Aun]-OH; thioether N-14), the IC50 was 12.8 nM.
The same measure for `CC(C)C[C@@H]1NC(=O)[C@H](Cc2c[nH]c3ccccc23)NC(=O)[C@H](CC(=O)O)NC(=O)[C@H](Cc2ccc(C(=O)O)cc2)NC(=O)[C@H](Cc2ccc(OCC(=O)O)cc2)NC(=O)CSC[C@@H](C(=O)NCC(=O)N[C@@H](CCC(=O)O)C(=O)NCCCCCCCCCCC(=O)O)NC(=O)[C@H](CO)NC(=O)[C@H](C(C)C)NC(=O)[C@H](CC2CCCCC2)NC(=O)[C@H](CCN)NC(=O)[C@@H](CC(C)C)NC(=O)[C@H](C)N(C)C(=O)[C@H](C(C)C)NC(=O)[C@H](Cc2ccc(-c3ccccc3)cc2)NC1=O` [Example 1040] ({CH2CO}-Y(Carboxymethyl)[Phe(4-COOH)]DWL[Bip]V[NMeA][dL][Dab][Cha]VSCGE[Aun]-OH; thioether N-14): 14 nM; for `CC(C)C[C@@H]1NC(=O)[C@H](Cc2c[nH]c3ccccc23)NC(=O)[C@H](CC(=O)O)NC(=O)[C@H](Cc2ccc(C(=O)O)cc2)NC(=O)[C@H](Cc2ccc(OCC(=O)O)cc2)NC(=O)CSC[C@@H](C(=O)NCC(=O)N[C@@H](CC(=O)O)C(=O)NCCCCCCCCCCC(=O)O)NC(=O)[C@H](CO)NC(=O)[C@H](C(C)C)NC(=O)[C@H](CC2CCCCC2)NC(=O)[C@H](CCN)NC(=O)[C@@H](CC(C)C)NC(=O)[C@H](C)N(C)C(=O)[C@H](C(C)C)NC(=O)[C@H](Cc2ccc(-c3ccccc3)cc2)NC1=O` [Example 1041] ({CH2CO}-Y(Carboxymethyl)[Phe(4-COOH)]DWL[Bip]V[NMeA][dL][Dab][Cha]VSCGD[Aun]-OH; thioether N-14): 13.8 nM.
The same measure for `Cc1cccc(C[C@@H]2NC(=O)[C@H](CC(=O)O)NC(=O)[C@H](Cc3ccc(OCC(=O)O)cc3)NC(=O)[C@H](CN)NC(=O)CSC[C@@H](C(=O)NCC(=O)N[C@@H](CN)C(=O)NCC(=O)NCCCCCCCCCCC(=O)O)NC(=O)[C@H](CO)NC(=O)[C@H](C(C)C)NC(=O)[C@H](CC(C)C)NC(=O)[C@H](CC(N)=O)NC(=O)[C@@H](CC(C)C)NC(=O)[C@H](C)N(C)C(=O)[C@H](C(C)C)NC(=O)[C@H](Cc3ccc(-c4ccccc4)cc3)NC(=O)[C@H](CC(C)C)NC2=O)c1` [Example 1052] ({CH2CO}-[Dap]Y(Carboxymethyl)D[Phe(3-Me)]L[Bip]V[NMeA][dL]NLVSCG[Dap]G[Aun]-OH; thioether N-14): 18.4 nM.
The same measure for `Cc1cccc(C[C@@H]2NC(=O)[C@H](CC(=O)O)NC(=O)[C@H](Cc3ccc(OCC(=O)O)cc3)NC(=O)[C@H](CN)NC(=O)CSC[C@@H](C(=O)NCC(=O)N[C@@H](CCC(=O)O)C(=O)NCCCCCCCCCCC(=O)O)NC(=O)[C@H](CO)NC(=O)[C@H](C(C)C)NC(=O)[C@H](CC(C)C)NC(=O)[C@H](CC(N)=O)NC(=O)[C@@H](CC(C)C)NC(=O)[C@H](C)N(C)C(=O)[C@H](C(C)C)NC(=O)[C@H](Cc3ccc(-c4ccccc4)cc3)NC(=O)[C@H](CC(C)C)NC2=O)c1` [Example 1060] ({CH2CO}-[Dap]Y(Carboxymethyl)D[Phe(3-Me)]L[Bip]V[NMeA][dL]NLVSCGE[Aun]-OH; thioether N-14): 47.9 nM.
